These results are taken from US20220249599A1, “TREATMENT OF IMPLANTS WITH ENGINEERED ANTIMICROBIAL AMPHIPHILIC PEPTIDES” (priority 2018, published 2022).

Where two headings read alike, the source gives them in different places. Ends that are not written are not given here. Some results are limits rather than exact numbers.

For data set [1] the following is noted: mouse.
From the text: Male CD-1 mice will be received from an approved vendor and allowed to acclimate for a minimum of two days. Fasting will be not required.
All dosing syringes will be weighed prior to and following dosing. IV doses will be administered as a slow bolus (over ˜30 seconds) via direct venipuncture of a tail vein. All animals will be observed at dosing and each scheduled collection. All abnormalities will be recorded.
Terminal blood samples will be collected via cardiac puncture following inhalation anesthesia.
Sample Processing and Storage: Blood samples will be collected into K2EDTA tubes and stored on wet ice. Whole blood will be processed to plasma by centrifugation (3500 rpm at 5° C.) within 30 minutes of collection. Plasma samples will be split into 2 equal aliquots and each transferred into 96 well plates (matrix tubes) and stored at −80° C. until analysis. Administered doses will be determined gravimetrically.
Prior to extraction, a known concentration of a mass-adjusted internal standard (IS) will be added to assess recovery and allow for quantitation. Purified samples will be further subjected to high-performance liquid chromatography (HPLC) using C18 300 or 130 angstrom columns prior to MS/MS analysis. Multiple charge states will be observed by MS, so MS/MS will be employed to enable multiple reaction monitoring (MRM) analyses to determine the most MRM transitions with the highest signal-to-noise gain. Compound plasma concentrations will be determined by comparing to and compensating with co-purified IS peak intensity and validated calibrated standard curves.
Pharmacokinetic parameters will be calculated using non-compartmental methods as implemented in the Phoenix® WinNonlin® ver. 6.3 comprehensive TK/PK analysis software program (Pharsight Corporation; Mountain View, Calif.) using an IV infusion model. Pharmacokinetic analysis will be conducted using a 30-minute intravenous infusion time. Therefore, 30 minutes will be added to each sample time point postdose to obtain nominal time for TK analysis. Nominal times and dosage levels will be used for all calculations. Values below the lower limit of quantitation (BLQ) will be assigned a value of zero for the pharmacokinetic calculations. Microsoft® Excel® 2013 will be used for receipt of bioanalytical data, minor formatting, including setting BLQ values to “0”, transfer into WinNonlin® for PK analysis, and calculation of the mean when an approximated value will be excluded. All plasma concentration data from all animals will be included in the analysis. Graphical presentations will be performed using Microsoft® Excel® 2013.
Data set [2] deals with Enterococcus faecium (n = 104). The experiment in a line: microbe, parasite or virus in culture. Particulars: n = 104. Here is the method:
Comparator antibiotics were supplied by Micromyx, and stock solutions were prepared on the first day of testing using solvents recommended by CLSI (1). Stock solutions of all compounds were made at 40× the final testing concentration and stored at −80° C. prior to testing. Information regarding compound source, catalog and lot number, testing concentrations and drug diluent for the comparators and test agent are detailed below in Table 3.
The test organisms evaluated in this study consisted of clinical isolates from the Micromyx Repository and reference isolates from the American Type Culture Collection (ATCC; Manassas, Va.). The clinical isolates were obtained from USA hospitals. Upon initial receipt at Micromyx, the organisms were sub-cultured onto an appropriate agar medium. Following incubation, colonies were harvested from these plates and cell suspensions prepared and frozen at −80° C. with a cryoprotectant. Prior to testing, the isolates were streaked from frozen vials onto Trypticase Soy Agar with 5% sheep blood (Becton Dickenson [BD]; Sparks, MD; Lot Nos. 7173618, 7166759, 7208688, 72144895, 7228505 and Remel Lenexa, Kans. Lot No. 212574). Plates were incubated at 35° C. overnight.
Mueller Hinton II broth (MHB II; BD; Lot Nos. 6258541 and 7143896) was used for MIC testing of aerobic organisms.
MIC values were determined using a broth microdilution procedure described by CLSI (1, 3). Automated liquid handlers (Multidrop 384, Labsystems, Helsinki, Finland; Biomek 2000 and Biomek FX, Beckman Coulter, Fullerton Calif.) were used to conduct serial dilutions and liquid transfers.
To prepare the drug mother plates, which would provide the serial drug dilutions for the replicate daughter plates, the wells of columns 2-12 of standard 96-well microdilution plates (Costar 3795) were filled with 150 µl of the designated diluent for each row of drug. The test articles and comparator compounds ([…] at 40× the highest concentration to be tested) were dispensed into the appropriate wells in column 1. The Biomek 2000 was then used to make 2-fold serial dilutions in the mother plates from column 1 through column 11. The wells of Column 12 contained no drug and served as the organism growth control wells for the assay.
The daughter plates were loaded with […] per well of MHB II using the Multidrop 384. The daughter plates were completed on the Biomek FX instrument which transferred 5 µL of drug solution from each well of a mother plate to the corresponding well of each daughter plate in a single step. A standardized inoculum of each test organism was prepared per CLSI methods (1). The inoculum for each organism was dispensed into sterile reservoirs divided by length (Beckman Coulter), and the Biomek 2000 was used to inoculate the plates. Daughter plates were placed on the Biomek 2000 work surface in reverse orientation so that inoculation took place from low to high drug concentration.
Plates were stacked 3-4 high, covered with a lid on the top plate, placed in plastic bags, and incubated at 35° C. for 16 to 20 hrs. Following incubation, the microplates were removed from the incubator and viewed from the bottom using a plate viewer. […] The MIC was read and recorded as the lowest concentration of drug that inhibited visible growth of the organism.
Clinical breakpoints to determine percent resistance within a given organism group were obtained from CLSI (3), with the exception of colistin for K. pneumoniae, Enterobacter spp., and E. coli, which are only available from EUCAST.

Consider “RRWVRRVRRVWRRVVRVVRRWVRR-NH2 (C-terminus assumed) [SEQ ID NO: 1]”, for which, in data set [1] (IV Dose 3 mg/kg), the AUCIinf_D is <3500 kg·ng·h/mL/ng, the AUCinf was <3500 ng·h/mL, the Extrapolated is ~0.5% and the MRTlast is ~0.5 h. Moreover, the T1/2 in data set [1] (IV Dose 3 mg/kg) was ~8 h. In data set [1] (IV Dose 15 mg/kg), the AUCIinf_D was found to be 3589 kg·ng·h/mL/ng and the Extrapolated was 0.49%. Also, in data set [2], the MIC50 was found to be 0.5 µg/mL, the MIC90 worked out at 1 µg/mL, the MIC range lay within 0.25 to 2 µg/mL and the “Mode (MIC)” value was determined as 1 µg/mL.
